Patent US20080249023A1 (priority 2004, published 2008)
Ends that are not written are not given here.

Key:
Bacillus subtilis = format: cell-based

Sequence | effect on Bacillus subtilis in time kill assay (Bacillus subtilis) | detergent-like (lytic) activity (sheep red blood cells)
RFARKGALRQKNV [Protein kinase C] | no effect | 
TRKKLFHIFHATIRSR [PAD-1.17, TRKKLFHIFHATIRSR] |  | did not appear to act as a detergent
